From ChEMBL document CHEMBL5131477, “Design, synthesis and biological evaluation of 1,3,4-triazole-3-acetamide derivatives as potent neuraminidase inhibitors” (Bioorg Med Chem Lett, 2022)

Assay: Inhibition of Influenza A virus H5N1 Neuraminidase

With `COc1ccc(C(=O)NNC(=O)CSc2nnc(-c3ccco3)[nH]2)cc1` the IC50 was 12.2 µM.

In the case of `CCc1ccc(NC(=O)CSc2nnc(-c3ccco3)[nH]2)cc1`, the IC50 is reported as 0.11 µM.

With `COc1ccc(C)cc1NC(=O)CSc1nnc(-c2ccco2)[nH]1` the IC50 was 28.5 µM.

In the case of `COc1cc(F)ccc1NC(=O)CSc1nnc(-c2ccco2)[nH]1`, the IC50 is reported as 1.8 µM.

With `COc1ccc(OC)c(NC(=O)CSc2nnc(-c3ccco3)[nH]2)c1` the IC50 was 55.3 µM.

`COc1cccc(NC(=O)CSc2nnc(-c3ccco3)[nH]2)c1` showed an IC50 of 0.24 µM.

In the case of `COc1cccc(CCNC(=O)CSc2nnc(-c3ccco3)[nH]2)c1`, the IC50 is reported as 9.04 µM.

With `O=C(CSc1nnc(-c2ccco2)[nH]1)NCCc1cccc(F)c1` the IC50 was 8.06 µM.

`COc1ccc(NC(=O)CSc2nnc(-c3ccco3)[nH]2)cc1OC` showed an IC50 of 1.43 µM.

For `O=C(CSc1nnc(-c2ccco2)[nH]1)NCCc1ccc2c(c1)OCO2`, the IC50 was 1.67 µM.

`O=C(CSc1nnc(-c2ccco2)[nH]1)Nc1cccc(Cl)c1` gave an IC50 of 4.33 µM.

In the case of `CCC(CC)O[C@@H]1C=C(C(=O)O)C[C@H](N)[C@H]1NC(C)=O` [OSELTAMIVIR CARBOXYLATE], the IC50 is reported as 0.1 µM.
